Assay results taken from ChEMBL document CHEMBL4004877, “Synthesis and biological evaluation of chalcone, dihydrochalcone, and 1,3-diarylpropane analogs as anti-inflammatory agents” (Bioorg Med Chem Lett, 2017).
Values after ≈ are worked out from the molar mass of the structure shown.

Experiments:
RAW264.7 [1] = test: Antiinflammatory activity in mouse RAW264.7 cells assessed as inhibition of LPS induced iNOS-dependent nitric oxide production at 1.25 ug/ml after 24 hrs by Griess assay relative to control; assay type: functional; conditions: RAW264.7, 24 h
RAW264.7 [2] = test: Antiinflammatory activity in mouse RAW264.7 cells assessed as inhibition of LPS induced iNOS-dependent nitric oxide production at 2.5 ug/ml after 24 hrs by Griess assay relative to control; assay type: functional; conditions: RAW264.7, 24 h
RAW264.7 [3] = test: Antiinflammatory activity in mouse RAW264.7 cells assessed as inhibition of LPS induced iNOS-dependent nitric oxide production at 5 ug/ml after 24 hrs by Griess assay relative to control; assay type: functional; conditions: RAW264.7, 24 h
RAW264.7 [4] = test: Antiinflammatory activity in mouse RAW264.7 cells assessed as inhibition of LPS induced iNOS-dependent nitric oxide production at 10 ug/ml after 24 hrs by Griess assay relative to control; assay type: functional; conditions: RAW264.7, 24 h
RAW264.7 [5] = test: Antiinflammatory activity in mouse RAW264.7 cells assessed as inhibition of LPS induced iNOS-dependent nitric oxide production after 24 hrs by Griess assay; assay type: functional, cell-based; conditions: RAW264.7, 24 h
[6] = Cytotoxicity against LPS-stimulated mouse RAW264.7 cells assessed as cell viability at 1.25 ug/ml after 24 hrs by MTT assay relative to control; assay type: cell-based; conditions: LPS-stimulated RAW264.7 cells, read-out: Activity
[7] = Cytotoxicity against LPS-stimulated mouse RAW264.7 cells assessed as cell viability at 2.5 ug/ml after 24 hrs by MTT assay relative to control; assay type: cell-based; conditions: LPS-stimulated RAW264.7 cells, read-out: Activity
[8] = Cytotoxicity against LPS-stimulated mouse RAW264.7 cells assessed as cell viability at 5 ug/ml after 24 hrs by MTT assay relative to control; assay type: cell-based; conditions: LPS-stimulated RAW264.7 cells, read-out: Activity
[9] = Cytotoxicity against LPS-stimulated mouse RAW264.7 cells assessed as cell viability at 10 ug/ml after 24 hrs by MTT assay relative to control; assay type: cell-based; conditions: LPS-stimulated RAW264.7 cells, read-out: Activity

| SMILES | inhibition at 1.25 µg/mL (RAW264.7 [1]) | inhibition at 2.5 µg/mL (RAW264.7 [2]) | inhibition at 5 µg/mL (RAW264.7 [3]) | inhibition at 10 µg/mL (RAW264.7 [4]) | IC50 (RAW264.7 [5]) | viability at 24 h, 1.25 ug/ml [6] | viability at 24 h, 2.5 ug/ml [7] | viability at 24 h, 5 ug/ml [8] | viability at 24 h, 10 ug/ml [9] |
| --- | --- | --- | --- | --- | --- | --- | --- | --- | --- |
| COc1ccc(C(=O)/C=C/c2ccc3c(c2)OCO3)c(OC)c1 | 2.4% | 51.9% | 52% | 62.4% | 2.43 µg/mL (≈ 7.78 µM) | 92.7% | 70.4% | 69.2% | 66.2% |
| COc1cc(CCC(=O)c2cccc(O)c2)ccc1O | 5.6% | 19.8% | 23.2% | 50.9% | 9.78 µg/mL (≈ 35.9 µM) | 100% | 98.9% | 96.1% | 91% |
| COc1ccc(/C=C/C(=O)c2cccc(O)c2)cc1OC | 1.7% | 3.3% | 3.5% | 65.9% | 8.38 µg/mL (≈ 29.5 µM) | 101% | 91% | 83.8% | 63.9% |
| COc1cccc(/C=C/C(=O)c2cccc(O)c2)c1OC | 1.8% | 3% | 52.4% | 55.1% | 4.83 µg/mL (≈ 17 µM) | 99.6% | 70.8% | 57.8% | 32.8% |
| COc1ccc(/C=C/C(=O)c2ccc(O)c(OC)c2)cc1 | 7.7% | 3.1% | 51.7% | 53.9% | 4.88 µg/mL (≈ 17.2 µM) | 96.2% | 96% | 82.9% | 62.3% |
| COc1ccc(CCC(=O)c2ccc(O)c(OC)c2)cc1 | 2.9% | 12.2% | 26.1% | 50.7% | 9.81 µg/mL (≈ 34.3 µM) | 90% | 92% | 89.8% | 86.5% |
| COc1ccc(CCCc2ccc(OC)c(OC)c2)cc1 | 12.9% | 15.1% | 28.6% | 55.4% | 8.69 µg/mL (≈ 30.3 µM) | 100% | 100% | 96.9% | 95.1% |
| COc1ccc(OC)c(CCC(=O)c2cccc(O)c2)c1 | 15.7% | 18.4% | 22.3% | 38.5% | > 10 µg/mL | 98.6% | 96.8% | 97.5% | 93.6% |
| COc1cc(C(=O)CCc2ccc3c(c2)OCO3)ccc1O | 4.2% | 5.5% | 32.2% | 51.6% | 9.44 µg/mL (≈ 31.4 µM) | 95.3% | 94.5% | 92% | 89% |
| COc1cc(/C=C/C(=O)c2cccc(O)c2)ccc1O | 3% | 3.2% | 3.2% | 12.2% | > 10 µg/mL | 96.9% | 94% | 63.8% | 62.6% |
| Oc1ccc(CCCc2ccc3c(c2)OCO3)cc1 | 33% | 37.7% | 48.9% | 69.4% | 5.18 µg/mL (≈ 20.2 µM) | 99.2% | 95.7% | 94.5% | 92.6% |
| O=C(/C=C/c1ccc2c(c1)OCO2)c1ccc(O)cc1 | 4.9% | 1.1% | 14.1% | 52.5% | 9.56 µg/mL (≈ 35.6 µM) | 99.2% | 95.2% | 88.5% | 68% |
| COc1cc(CCCc2cccc(OC)c2OC)ccc1O | 43.3% | 49.5% | 60.7% | 89.4% | 2.57 µg/mL (≈ 8.5 µM) | 99.6% | 97.8% | 97% | 68.9% |
| COc1ccc(C(=O)CCc2ccc3c(c2)OCO3)c(OC)c1 | 0.2% | 4.5% | 6.6% | 9.8% | > 10 µg/mL | 87.4% | 87.2% | 83.2% | 81% |
| COc1ccc(C(=O)/C=C/c2ccc(OC)c(OC)c2OC)c(O)c1 | 9.1% | 9.7% | 4.1% | 0.1% | > 10 µg/mL | 98.5% | 96.6% | 72.5% | 75.3% |
| COc1ccc(CCC(=O)c2ccc(OC)c(OC)c2)cc1OC | 5.9% | 8.2% | 13.8% | 31.1% | > 10 µg/mL | 99.6% | 98% | 96.2% | 95.3% |
